Experimental data: the supplement of paper PMC10883282

Experiments:
Test in all cases: standardised AUC of viability dose-response curve (72 h) (fraction (0-1)); higher = less growth inhibition (more resistant)
HT1080 = test system: HT1080
Method in brief: (§1)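 Sarcoma cell lines in 384-well plates were treated in triplicate for 72 h with 2.5 µl of a compound dilution series, made in 1:3 steps from 10 mM to 0.0002 mM on the compound plate. ATPLite viability was scaled from 1 (full) to 0 (none) and fitted per drug and cell line with a four-parameter log-logistic model. The values are standardised areas under the dose-response curve in log-dose space, from a modified drexplorer computeAUC. On that scale, 1 means no response and 0 means full response.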

G401 = test system: G401
Method in brief: as §1

VA-ES-BJ = test system: VA-ES-BJ
Method in brief: as §1

SW1353 = test system: SW1353
Method in brief: as §1

MES-SA = test system: MES-SA
Method in brief: as §1

A204 = test system: A204
Method in brief: as §1

SW982 = test system: SW982
Method in brief: as §1

SW684 = test system: SW684
Method in brief: as §1

SW872 = test system: SW872
Method in brief: as §1

KHOS-NP = test system: KHOS-NP
Method in brief: as §1

SYO-1 = test system: SYO-1
Method in brief: as §1

HS729 = test system: HS729
Method in brief: as §1

SK-LMS-1 = test system: SK-LMS-1
Method in brief: as §1

KHOS-240S = test system: KHOS-240S
Method in brief: as §1

RD-ES = test system: RD-ES
Method in brief: as §1

RD = test system: RD
Method in brief: as §1

SK-ES-1 = test system: SK-ES-1
Method in brief: as §1

| SMILES | standardised AUC (HT1080) | standardised AUC (G401) | standardised AUC (VA-ES-BJ) | standardised AUC (SW1353) | standardised AUC (MES-SA) | standardised AUC (A204) | standardised AUC (SW982) | standardised AUC (SW684) | standardised AUC (SW872) | standardised AUC (KHOS-NP) | standardised AUC (SYO-1) | standardised AUC (HS729) | standardised AUC (SK-LMS-1) | standardised AUC (KHOS-240S) | standardised AUC (RD-ES) | standardised AUC (RD) | standardised AUC (SK-ES-1) |
| --- | --- | --- | --- | --- | --- | --- | --- | --- | --- | --- | --- | --- | --- | --- | --- | --- | --- |
| CN(C)C/C=C/C(=O)Nc1cc2c(Nc3ccc(F)c(Cl)c3)ncnc2cc1O[C@H]1CCOC1 [AFATINIB] | 0.926 | 0.838 | 0.825 | 0.729 | 0.807 | 0.733 | 0.759 | 0.85 | 0.819 | 0.939 | 0.795 | 0.849 | 0.837 | 0.846 | 0.823 | 0.801 | 0.745 |
| COc1cc(Nc2ncc3c(n2)-c2ccc(Cl)cc2C(c2c(F)cccc2OC)=NC3)ccc1C(=O)O [ALISERTIB] | 0.873 | 0.811 | 0.808 | 0.933 | 0.678 | 0.876 | 0.734 | 0.902 | 0.895 | 0.95 | 0.732 | 0.889 | 0.865 | 0.835 | 0.656 | 0.801 | 0.558 |
| CCS(=O)(=O)N1CC(CC#N)(n2cc(-c3ncnc4[nH]ccc34)cn2)C1 [BARICITINIB] | 0.989 | 0.995 | 0.997 | 0.987 | 0.972 | 0.962 | 0.99 | 0.99 | 0.992 | 0.986 | 0.985 | 0.977 | 0.985 | 0.981 | 1 | 1 | 1 |
| COc1cc(N2CCC(N3CCN(C)CC3)CC2)ccc1Nc1ncc(Cl)c(Nc2ccccc2P(C)(C)=O)n1 [BRIGATINIB] | 0.907 | 0.816 | 0.763 | 0.77 | 0.908 | 0.833 | 0.649 | 0.904 | 0.778 | 0.889 | 0.681 | 0.728 | 0.883 | 0.766 | 0.7 | 0.694 | 0.713 |
| Cc1cc2c(F)c(Oc3ncnn4cc(OC[C@@H](C)OC(=O)[C@H](C)N)c(C)c34)ccc2[nH]1 [BRIVANIB ALANINATE] | 0.979 | 0.991 | 0.994 | 0.995 | 0.964 | 0.967 | 1 | 0.989 | 1 | 0.966 | 0.943 | 0.977 | 0.941 | 0.974 | 0.996 | 0.987 | 0.986 |
| O=C(c1ccc(F)c(F)c1Nc1ccc(I)cc1F)N1CC(O)([C@@H]2CCCCN2)C1 [COBIMETINIB] | 0.661 | 0.732 | 0.756 | 0.844 | 0.909 | 0.801 | 0.867 | 0.748 | 0.633 | 0.657 | 0.878 | 0.899 | 0.628 | 0.786 | 0.953 | 0.653 | 0.931 |
| Cc1c2oc3c(C)ccc(C(=O)N[C@@H]4C(=O)N[C@H](C(C)C)C(=O)N5CCC[C@H]5C(=O)N(C)CC(=O)N(C)[C@@H](C(C)C)C(=O)O[C@@H]4C)c3nc-2c(C(=O)N[C@@H]2C(=O)N[C@H](C(C)C)C(=O)N3CCC[C@H]3C(=O)N(C)CC(=O)N(C)[C@@H](C(C)C)C(=O)O[C@@H]2C)c(N)c1=O [DACTINOMYCIN] | 0.464 | 0.348 | 0.453 | 0.492 | 0.258 | 0.365 | 0.396 | 0.778 | 0.56 | 0.451 | 0.444 | 0.504 | 0.566 | 0.408 | 0.418 | 0.432 | 0.272 |
| C[C@@H]1CN(C(=O)c2ccc(NC(=O)c3cc(O[C@H](C)c4c(Cl)ccc(F)c4Cl)c(N)nn3)cc2)C[C@H](C)N1 [ENSARTINIB] | 0.929 | 0.875 | 0.853 | 0.933 | 0.832 | 0.937 | 0.808 | 0.936 | 0.891 | 0.975 | 0.816 | 0.878 | 0.845 | 0.895 | 0.805 | 0.852 | 0.79 |
| C=CC(=O)N1CCC(CNc2ncnc(N)c2-c2ccc(Oc3ccccc3)cc2)CC1 [EVOBRUTINIB] | 0.984 | 0.979 | 0.992 | 0.947 | 0.98 | 0.943 | 0.994 | 0.998 | 0.987 | 0.995 | 0.975 | 0.929 | 0.981 | 0.981 | 0.989 | 0.996 | 0.945 |
| CNC(=O)c1c(C)oc2cc(Oc3ncnc4cc(OC)c(OC)cc34)ccc12 [FRUQUINTINIB] | 0.968 | 0.934 | 0.964 | 0.932 | 0.97 | 0.787 | 0.986 | 0.979 | 0.925 | 0.975 | 0.79 | 0.856 | 0.96 | 0.937 | 0.984 | 0.993 | 0.968 |
| COc1cc2ncnc(Nc3ccc(F)c(Cl)c3)c2cc1OCCCN1CCOCC1 [GEFITINIB] | 0.983 | 0.963 | 0.989 | 0.955 | 0.948 | 0.948 | 0.927 | 0.988 | 0.959 | 0.994 | 0.945 | 0.963 | 0.942 | 0.962 | 0.961 | 0.973 | 0.904 |
| CCc1nc(C(N)=O)c(Nc2ccc(N3CCC(N4CCN(C)CC4)CC3)c(OC)c2)nc1NC1CCOCC1 [GILTERITINIB] | 0.899 | 0.811 | 0.793 | 0.857 | 0.785 | 0.817 | 0.674 | 0.791 | 0.735 | 0.898 | 0.665 | 0.659 | 0.823 | 0.814 | 0.655 | 0.748 | 0.663 |
| O=S(=O)(c1cccc2c(O)nccc12)N1CCCNCC1 [HYDROXYFASUDIL] | 0.999 | 0.99 | 0.968 | 0.965 | 0.967 | 0.98 | 0.992 | 0.95 | 0.961 | 0.981 | 0.958 | 0.917 | 0.979 | 0.975 | 1 | 1 | 0.976 |
| C#Cc1cccc(Nc2ncnc3cc4c(cc23)OCCOCCOCCO4)c1 [ICOTINIB] | 0.988 | 0.995 | 0.975 | 0.947 | 0.976 | 0.958 | 0.989 | 0.986 | 0.958 | 0.996 | 0.966 | 0.918 | 0.982 | 0.99 | 0.985 | 1 | 0.986 |
| CCN1CCN(c2ccc(Nc3cc(N(C)C(=O)Nc4c(Cl)c(OC)cc(OC)c4Cl)ncn3)cc2)CC1 [INFIGRATINIB] | 0.995 | 0.719 | 0.943 | 0.855 | 0.774 | 0.701 | 0.933 | 0.996 | 0.95 | 0.983 | 0.736 | 0.737 | 0.965 | 0.896 | 0.926 | 0.986 | 0.838 |
| CS(=O)(=O)CCNCc1ccc(-c2ccc3ncnc(Nc4ccc(OCc5cccc(F)c5)c(Cl)c4)c3c2)o1 [LAPATINIB] | 0.99 | 0.991 | 0.966 | 0.941 | 0.924 | 0.915 | 0.94 | 0.989 | 0.936 | 0.99 | 0.924 | 0.952 | 0.938 | 0.927 | 0.995 | 0.938 | 0.928 |
| O=C1CCc2c(Oc3ccc4c(c3)[C@@H]3[C@H](O4)[C@H]3c3nc4cc(C(F)(F)F)ccc4[nH]3)ccnc2N1 [LIFIRAFENIB] | 0.963 | 0.946 | 0.987 | 0.96 | 0.956 | 0.805 | 0.931 | 0.999 | 0.87 | 0.882 | 0.88 | 0.95 | 0.904 | 0.938 | 0.988 | 0.924 | 0.955 |
| CNC(=O)c1cccc2cc(Oc3ccnc4cc(OCC5(N)CC5)c(OC)cc34)ccc12 [LUCITANIB] | 1 | 0.853 | 0.994 | 0.893 | 0.908 | 0.585 | 0.975 | 0.973 | 0.985 | 0.994 | 0.74 | 0.85 | 0.94 | 0.901 | 0.964 | 0.985 | 0.95 |
| CCOc1cc2ncc(C#N)c(Nc3ccc(OCc4ccccn4)c(Cl)c3)c2cc1NC(=O)/C=C/CN(C)C [NERATINIB] | 0.877 | 0.851 | 0.83 | 0.753 | 0.745 | 0.755 | 0.717 | 0.901 | 0.817 | 0.889 | 0.818 | 0.872 | 0.847 | 0.873 | 0.822 | 0.775 | 0.693 |
| COC(=O)c1ccc2c(c1)NC(=O)/C2=C(\Nc1ccc(N(C)C(=O)CN2CCN(C)CC2)cc1)c1ccccc1 [NINTEDANIB] | 0.96 | 0.859 | 0.982 | 0.966 | 0.967 | 0.624 | 0.941 | 0.953 | 0.978 | 0.961 | 0.672 | 0.88 | 0.943 | 0.858 | 0.896 | 0.93 | 0.832 |
| Cc1[nH]c(/C=C2\C(=O)Nc3ccccc32)c(C)c1CCC(=O)O [ORANTINIB] | 0.971 | 0.977 | 0.967 | 0.964 | 0.958 | 0.963 | 0.966 | 0.966 | 0.975 | 0.99 | 0.976 | 0.934 | 0.976 | 0.993 | 0.985 | 0.994 | 0.977 |
| CC(=O)c1c(C)c2cnc(Nc3ccc(N4CCNCC4)cn3)nc2n(C2CCCC2)c1=O [PALBOCICLIB] | 0.96 | 0.903 | 0.78 | 0.922 | 0.808 | 0.806 | 0.789 | 0.928 | 0.887 | 0.96 | 0.772 | 0.949 | 0.967 | 0.863 | 0.792 | 0.946 | 0.721 |
| CN(C)C(=O)c1cc2cnc(Nc3ccc(N4CCNCC4)cn3)nc2n1C1CCCC1 [RIBOCICLIB] | 0.993 | 0.917 | 0.903 | 0.939 | 0.94 | 0.909 | 0.952 | 0.984 | 0.95 | 0.997 | 0.86 | 0.987 | 0.963 | 0.961 | 0.865 | 0.946 | 0.816 |
| O=C(/C=C\n1cnc(-c2cc(C(F)(F)F)cc(C(F)(F)F)c2)n1)NNc1cnccn1 [SELINEXOR] | 0.714 | 0.706 | 0.625 | 0.822 | 0.652 | 0.672 | 0.649 | 0.847 | 0.781 | 0.655 | 0.596 | 0.773 | 0.642 | 0.612 | 0.751 | 0.721 | 0.5 |
